Read-outs that look alike come from different tables or passages of the source.
Assays:
PDK1 kinase = biological target: T1, PDK1 kinase (Homo sapiens, UniProt O15530); test: PDK1 luminescence-based enzyme assay (Kinase-Glo); type: biochemical
T1 construct: 6x Histidine tag (TEV-cleavable) (cleaved yes); made in house; host or cells: Sf9 insect cells
T1 sequence (O15530 1-556): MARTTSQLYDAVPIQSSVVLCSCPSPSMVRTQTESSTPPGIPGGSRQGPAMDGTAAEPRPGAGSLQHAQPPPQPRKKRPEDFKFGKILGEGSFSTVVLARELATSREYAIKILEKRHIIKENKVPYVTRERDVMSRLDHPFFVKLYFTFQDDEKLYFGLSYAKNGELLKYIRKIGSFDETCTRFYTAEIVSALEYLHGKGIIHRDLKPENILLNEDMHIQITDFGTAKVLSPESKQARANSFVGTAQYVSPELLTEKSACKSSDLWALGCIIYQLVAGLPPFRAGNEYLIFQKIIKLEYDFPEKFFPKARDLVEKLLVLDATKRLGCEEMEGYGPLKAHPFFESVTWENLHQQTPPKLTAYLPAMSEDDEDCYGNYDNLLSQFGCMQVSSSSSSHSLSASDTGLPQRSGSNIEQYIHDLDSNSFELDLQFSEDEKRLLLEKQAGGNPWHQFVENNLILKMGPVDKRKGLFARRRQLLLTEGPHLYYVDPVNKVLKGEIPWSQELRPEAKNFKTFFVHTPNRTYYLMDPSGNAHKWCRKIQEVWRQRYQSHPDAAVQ
Text: (§1) In addition to the c-Abl PK/LDH coupled assay (above), homogeneous luminescence-based inhibitor screening assays were developed for c-Abl, MET, AurA, and PDK1 kinases (among others). Each of these assays made use of an ATP depletion assay (Kinase-Glo™, Promega Corporation, Madison, Wis.) to quantitate kinase activity. The Kinase-Glo™ format uses a thermostable luciferase to generate luminescent signal from ATP remaining in solution following the kinase reaction. The luminescent signal is inversely correlated with the amount of kinase activity.
PDK1 Luminescence-Based Enzyme Assay
Standard Assay Setup for 384-well format (20 μl kinase reaction, 40 μl detection reaction): 10 mM MgCl2; 0.01 mM PDKtide; 1 μl test compound (in DMSO); 0.1 μg/ml PDK1 kinase; 5 μM ATP; 1 mM MgCl2; 100 mM HEPES+0.01% Brij buffer. Positive controls contained DMSO with no test compound. Negative controls contained 10 μM staurosporine. The kinase reactions were initiated at time t=0 by the addition of ATP. Kinase reactions were incubated at 21° C. for 40 min, then 20 μl of Kinase-Glo™ reagent were added to each well to quench the kinase reaction and initiate the luminescence reaction. After a 20 min incubation at 21° C., the luminescence was detected in a plate-reading luminometer.

MET kinase = biological target: T2, MET kinase (Homo sapiens, UniProt P08581); test: MET luminescence-based enzyme assay (Kinase-Glo); type: biochemical
T2 construct: Sf9 insect cell culture expressing the kinase domain of human Met; 6x Histidine tag (TEV-cleavable) (cleaved yes); made in house; host or cells: Sf9 insect cells
Text: as §1
MET Luminescence-based Enzyme Assay
Materials: Poly Glu-Tyr (4:1) substrate (Sigma Cat# P-0275), ATP (Sigma Cat#A-3377, FW=551), HEPES buffer, pH 7.5, Bovine serum albumin (BSA) (Roche 92423420), MgCl2, Staurosporine (Streptomyces sp. Sigma Cat#85660-1MG), white Costar 384-well flat-bottom plate (VWR Cat#29444-088). […]
Standard Assay Setup for 384-well format (20 μl kinase reaction, 40 μl detection reaction): 10 mM MgCl2; 0.3 mg/ml poly Glu-Tyr; 0.1% BSA; 1 μl test compound (in DMSO); 0.4 μg/ml MET kinase; 10 μM ATP; 100 mM HEPES buffer. […] Kinase reactions were incubated at 21° C. for 60 min, then 20 μl of Kinase-Glo™ reagent were added to each well to quench the kinase reaction and initiate the luminescence reaction. After a 20 min incubation at 21° C., the luminescence was detected in a plate-reading luminometer.

T2 sequence (P08581 1078-1345 limits assumed): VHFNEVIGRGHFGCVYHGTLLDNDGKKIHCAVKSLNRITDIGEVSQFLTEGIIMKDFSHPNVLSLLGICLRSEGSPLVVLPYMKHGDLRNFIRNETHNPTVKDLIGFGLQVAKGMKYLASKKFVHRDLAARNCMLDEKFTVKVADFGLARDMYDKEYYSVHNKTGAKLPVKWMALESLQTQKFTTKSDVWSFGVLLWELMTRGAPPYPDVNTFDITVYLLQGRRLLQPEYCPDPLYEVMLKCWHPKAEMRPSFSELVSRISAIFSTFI

SMILES | IC50 (PDK1 kinase) [µM] | other results
COc1ccccc1-c1n[nH]c2ncc(-c3ccc(C(=O)N4CCOCC4)cc3)cc12 | 1 to 10 | 
CCN1CCN(C(=O)c2cccc(-c3cnc4[nH]nc(-c5cc(F)ccc5OC)c4c3)c2)CC1 |  | IC50 (MET kinase): 1 to 10 µM
COc1cc(-c2cnc3[nH]nc(-c4ccccc4)c3c2)ccc1O | 1 to 10 | 
COc1ccccc1-c1n[nH]c2ncc(-c3ccc(C(=O)N4CCCCC4)cc3)cc12 | 1 to 10 | 
COc1cc(-c2cnc3[nH]cc(-c4ccc(C)cc4)c3n2)ccc1O |  | IC50 (PDK1 kinase; read-out: PDK1 IC50): 1 to 10 µM

Continued, in another order:

IC50 (PDK1 kinase) [µM] | SMILES | other results
1 to 10 | COc1ccccc1-c1n[nH]c2ncc(-c3ccc(C(=O)N4CCN(C)CC4)cc3)cc12 | 
1 to 10 | COc1ccccc1-c1n[nH]c2ncc(-c3ccc(C(=O)N4CCCC4)cc3)cc12 | 
